Data: patent US7117100B2, “Method for the compositional analysis of polymers” (Massachusetts Institute of Technology, priority 1999, dated 2006)

Columns and labels:
FGF-2 = FGF-2 (Homo sapiens, UniProt P09038); test: Saccharide binding to FGF-2 immobilized on the MALDI surface, salt wash, MALDI-MS detection
Method: Protein preparation and immobilization. ATIII was incubated overnight with excess porcine mucosal heparin, then biotinylated with EZ-link sulfo-NHS biotin (Pierce). Canon NP Type E transparency film was taped to the MALDI sample plate and used as a protein immobilization surface. FGF-1 and FGF-2 were immobilized by spotting 1 μl of aqueous solution on the film and air-drying. ATIII was immobilized by first drying 4 μg neutravidin on the film surface, then adding biotinylated ATIII to the neutravidin spot. Heparin was removed by washing ten times with 1M NaCl and ten times with water.
Saccharide binding, selection and analysis. Saccharides were derived from a partial digest of porcine mucosal heparin by heparinase I. The hexasaccharide fraction was obtained by size exclusion chromatography on Biogel P-6 and lyophilized to dryness. Saccharides were bound to immobilized proteins by spotting 1 μl of aqueous solution on the protein spot for at least five minutes. Unbound saccharides were removed by washing with water fifteen times. […] All saccharides were detected as noncovalent complexes with (RG)19R using MALDI parameters described herein.
Isolation, Purification, and Selection of FGF binders from SMC heparan sulfate. […] After drying, the sample was washed, 2 pmol/μl (RG)19R in matrix was added, and the sample was analyzed as outlined above.

heparinase III = target: T1, heparinase III (Pedobacter heparinus, UniProt Q59289); test: Cleavage of defined oligosaccharide substrates by heparinase III; assay type: biochemical, Flavobacterium heparinum
T1 construct: made in house
Excerpt: Secondary specificities of the heparinases have been observed, especially under exhaustive degradation conditions. As a part of ongoing investigations into the enzymology of heparinases, the relative rates of cleavage of I and G containing sites by heparinase I and III with defined substrates under different conditions have been measured. For instance heparinase III cleaves both at I and G containing linkages and not I2S [H. E. Conrad, Heparin Binding Proteins (Academic Press, San Diego, 1998).]. However, under the reaction conditions used in this study, there is a dramatic (8-10 fold) difference in the rates of cleavage, with I-containing linkages being clipped more slowly than G-containing linkages (FIG. 7A). […] Each reaction was followed by capillary electrophoresis. […] Under the “short” conditions of digest it is expected that only G-containing saccharides are cleaved to an appreciable extent. [Conditions for enzymatic digest of HLGAG oligosaccharides were set forth above, briefly, Digests were either designated as “short” or “exhaustive”. Short digests were completed with 50 nM enzyme for 10 minutes. Exhaustive digests were completed using 200 nM enzyme for either four hours or overnight. Partial nitrous acid cleavage was completed using a modification of published procedures. Briefly, to an aqueous solution of saccharide was added a 2× solution of sodium nitrite in HCl such that the concentration of nitrous acid was 2 mM and HCl was 20 mM. The reaction was allowed to proceed at room temperature with quenching of aliquots at various time points via the addition of 1 μL of 200 mM sodium acetate 1 mg/mL BSA pH 6.0. Exhaustive nitrous acid was completed by reacting saccharide with 4 mM nitrous acid in HCl overnight at room temperature.
Quite a few factors have severely limited and complicated prior art studies and interpretation of heparinase substrate specificity experiments. First, not only is a homogenous substrate preparation difficult, but also analyzing the substrates and products have been very challenging. […]

Heparinase II = test: Incubation of hexasaccharide with heparinase II; assay type: biochemical
[1] = Cleavage of tetrasaccharides by heparinase I; assay type: biochemical; settings: tetrasaccharide substrates, same study as FIG. 7A
Excerpt: (§1) Secondary specificities of the heparinases have been observed, especially under exhaustive degradation conditions. As a part of ongoing investigations into the enzymology of heparinases, the relative rates of cleavage of I and G containing sites by heparinase I and III with defined substrates under different conditions have been measured. For instance heparinase III cleaves both at I and G containing linkages and not I2S [H. E. Conrad, Heparin Binding Proteins (Academic Press, San Diego, 1998).]. However, under the reaction conditions used in this study, there is a dramatic (8-10 fold) difference in the rates of cleavage, with I-containing linkages being clipped more slowly than G-containing linkages (FIG. 7A). […] Each reaction was followed by capillary electrophoresis. […] Under the “short” conditions of digest it is expected that only G-containing saccharides are cleaved to an appreciable extent. [Conditions for enzymatic digest of HLGAG oligosaccharides were set forth above, briefly, Digests were either designated as “short” or “exhaustive”. Short digests were completed with 50 nM enzyme for 10 minutes. Exhaustive digests were completed using 200 nM enzyme for either four hours or overnight. Partial nitrous acid cleavage was completed using a modification of published procedures. […]

[2] = Relative rates of cleavage of tetrasaccharides by recombinant heparinase III, followed by capillary electrophoresis; assay type: biochemical
Excerpt: as §1

Sequence of FGF-2 (P09038 134-288 limits assumed, species assumed): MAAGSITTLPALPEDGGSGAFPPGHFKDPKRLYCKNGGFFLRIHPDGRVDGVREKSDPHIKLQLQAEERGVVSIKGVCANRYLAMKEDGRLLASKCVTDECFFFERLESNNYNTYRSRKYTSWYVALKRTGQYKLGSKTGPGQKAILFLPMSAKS

For “ΔU2SHNS,6SI2SHNS,6SI2SHNS,6S [nonasulfated hexasaccharide]”, the “FGF-2 binder selected from SMC heparan sulfate” value (FGF-2; bovine aortic SMC HLGAG fragments digested with heparinase II, spotted on FGF-2) was “high affinity binder” and the “Structures remaining on immobilized FGF upon a salt wash” value (FGF-2; hexasaccharide fraction from incomplete heparinase I digestion of porcine intestinal mucosa heparin) was “remained”.

With ΔU2SHNS,6SI2SHNS,6S the “Degradation by a commercial source of heparinase III” value (heparinase III; commercial enzyme, sulfatase contamination suggested) was “able to degrade” and the “Cleavage by recombinant heparinase III” value (heparinase III; recombinant enzyme without contamination by other heparin degrading enzymes) was “does not cleave”.

In the case of ΔUHNH,6SGHNSIHNAc, the “Cleavage by heparinase III” value (heparinase III; "short" digest conditions) is reported as “cleavage occurs only at the G” and the “Cleavage by heparinase II” value (Heparinase II) is reported as “only cleavage at the G and not the I was observed”.

B1: heparinase I: HLGAG degrading enzyme; clips at a glycosidic linkage before a 2-O sulfated iduronic acid (protein, UniProt Q05819 22-384, looked up)
Heparin lyase I: QQKKSGNIPYRVNVQADSAKQKAIIDNKWVAVGINKPYALQYDDKLRFNGKPSYRFELKAEDNSLEGYAAGETKGRTELSYSYATTNDFKKFPPSVYQNAQKLKTVYHYGKGICEQGSSRSYTFSVYIPSSFPDNATTIFAQWHGAPSRTLVATPEGEIKTLSIEEFLALYDRMIFKKNIAHDKVEKKDKDGKITYVAGKPNGWKVEQGGYPTLAFGFSKGYFYIKANSDRQWLTDKADRNNANPENSEVMKPYSSEYKTSTIAYKMPFAQFPKDCWITFDVAIDWTKYGKEANTILKPGKLDVMMTYTKNKKPQKAHIVNQQEILIGRNDDDGYYFKFGIYRVGNSTVPVTYNLSGYSETAR
In the case of B1, the “Linkage specificity of cleavage by heparinase I” value [1] is reported as “cleavage only occurs at I2S-containing linkages”.

B2: heparinase III: HLGAG degrading enzyme; cleaves at a glycosidic linkage before an unsulfated glucuronic acid (protein, UniProt Q59289 25-659, looked up)
Heparin-sulfate lyase: QSSSITRKDFDHINLEYSGLEKVNKAVAAGNYDDAAKALLAYYREKSKAREPDFSNAEKPADIRQPIDKVTREMADKALVHQFQPHKGYGYFDYGKDINWQMWPVKDNEVRWQLHRVKWWQAMALVYHATGDEKYAREWVYQYSDWARKNPLGLSQDNDKFVWRPLEVSDRVQSLPPTFSLFVNSPAFTPAFLMEFLNSYHQQADYLSTHYAEQGNHRLFEAQRNLFAGVSFPEFKDSPRWRQTGISVLNTEIKKQVYADGMQFELSPIYHVAAIDIFLKAYGSAKRVNLEKEFPQSYVQTVENMIMALISISLPDYNTPMFGDSWITDKNFRMAQFASWARVFPANQAIKYFATDGKQGKAPNFLSKALSNAGFYTFRSGWDKNATVMVLKASPPGEFHAQPDNGTFELFIKGRNFTPDAGVFVYSGDEAIMKLRNWYRQTRIHSTLTLDNQNMVITKARQNKWETGNNLDVLTYTNPSYPNLDHQRSVLFINKKYFLVIDRAIGEATGNLGVHWQLKEDSNPVFDKTKNRVYTTYRDGNNLMIQSLNADRTSLNEEEGKVSYVYNKELKRPAFVFEKPKKNAGTQNFVSIVYPYDGQKAPEISIRENKGNDFEKGKLNLTLTINGKQQLVLVP
With B2 the “Difference in the rates of cleavage, I-containing linkages clipped more slowly than G-containing linkages” value ([2]; reaction conditions of this study) was 8-10 fold and the “Cleavage of G-containing linkages relative to I-containing linkages” value ([2]; recombinant heparinase III, tetrasaccharide substrates) was “roughly 10 times”.
